The target in one assay is T1, Alpha-amylase 1A (Homo sapiens, UniProt P0DUB6).
T1 sequence (P0DUB6 whole entry): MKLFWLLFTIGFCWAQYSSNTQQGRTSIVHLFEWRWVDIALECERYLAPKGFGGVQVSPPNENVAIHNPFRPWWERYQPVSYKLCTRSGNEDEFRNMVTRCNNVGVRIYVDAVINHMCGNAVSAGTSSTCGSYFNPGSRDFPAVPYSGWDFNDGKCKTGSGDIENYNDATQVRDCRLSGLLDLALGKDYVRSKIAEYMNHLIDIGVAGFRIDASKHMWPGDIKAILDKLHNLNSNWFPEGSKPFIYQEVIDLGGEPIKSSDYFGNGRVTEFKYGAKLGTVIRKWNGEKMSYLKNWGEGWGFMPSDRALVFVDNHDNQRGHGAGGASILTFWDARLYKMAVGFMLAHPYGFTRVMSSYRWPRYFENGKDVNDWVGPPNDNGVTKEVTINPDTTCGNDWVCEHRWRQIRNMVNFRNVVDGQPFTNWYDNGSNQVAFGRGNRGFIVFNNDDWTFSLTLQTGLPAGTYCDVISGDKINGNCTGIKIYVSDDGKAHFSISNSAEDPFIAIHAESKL
Nature of the assay: Inhibition of human salivary alpha-amylase using GalG2CNP as substrate by UV-Vis spectrophotometric analysis.

For another assay, the target named is T2, Alpha amylase (Homo sapiens, UniProt P0DUB6).
T2 sequence (P0DUB6 whole entry): T1 sequence (P0DUB6 whole entry)
Briefly: (§1) Inhibition of alpha-amylase (unknown origin) relative to control.

The target in assay [1] is Alpha amylase (Homo sapiens) (UniProt P0DUB6). The description is as §1. Further details: concentration or dose not given beside the values. The settings on record: concentration not given here.

As a reminder, the IC50 is the concentration needed to halve the response being measured. The term inhibition denotes the percentage by which the read-out fell short of the control.

As to `Oc1ccc(Nc2nc(-c3ccc(Cl)cc3)cs2)cc1`, on Alpha-amylase 1A (read-out: IC50), the half-inhibitory concentration (IC50) is 1040 µM.

As for `CC(=O)N1CCN(C2=NC(=O)/C(=C\c3ccccc3O)S2)CC1`, the half-inhibitory concentration (IC50) on Alpha-amylase 1A (read-out: IC50) worked out at 700 µM.

With `Oc1ccc(Nc2nc(-c3ccc(O)cc3)cs2)cc1`, the IC50 at Alpha-amylase 1A (read-out: IC50) was 492 µM. At Alpha amylase, `COc1cc(/C=C/C(=O)O)cc(OC)c1O` [SINAPINATE] returned a concentration for half-maximal inhibition (IC50) of more than 6500 µM. In assay [1], `C[C@@H]1O[C@@H](OC[C@H]2O[C@@H](Oc3c(-c4ccc(O)c(O)c4)oc4cc(O)cc(O)c4c3=O)[C@H](O)[C@@H](O)[C@@H]2O)[C@H](O)[C@H](O)[C@H]1O` registered an inhibition of 20.1%. Consider `Cc1ccc(-c2csc(Nc3ccc(O)cc3)n2)cc1`, for which the IC50 on Alpha-amylase 1A (read-out: IC50) was determined as 735 µM.

As to `O=c1cc(-c2ccccc2)oc2cc(O)cc(O)c12`, the inhibition in assay [1] was 5%.

Turning to `COc1ccc(CCC(=O)O)cc1OC`, the IC50 on Alpha amylase was more than 12000 µM. On to `COc1cccc(NC(=N)Nc2nc(O)cc(CSc3ccccn3)n2)c1`, for which, on Alpha-amylase 1A (read-out: IC50), the IC50 stood at 330 µM. The molecule `O=c1cc(-c2ccc(O)cc2)oc2cc(O)cc(O)c12` yielded an inhibition in assay [1] of 12.4%. In assay [1], `O=c1ccc2cc(O)c(O)cc2o1` displayed an inhibition of 17.4%. Molecule `O=C(O)CCc1ccc(O)c(O)c1` [DIHYDROCAFFEIC ACID] returned an IC50 against Alpha amylase of more than 14000 µM.

With `Oc1cc(O)c2cc(O)c(-c3ccc(O)c(O)c3)[o+]c2c1`, the inhibition in assay [1] came out at 12%.

`O=C(/C=C/c1ccc(O)c(O)c1)O[C@@H]1C[C@@](OC(=O)/C=C/c2ccc(O)c(O)c2)(C(=O)O)C[C@@H](O)[C@@H]1O` [CYNARIN]: the IC50 against Alpha amylase is more than 2000 µM. Turning to `O=C(O)c1ccc(Nc2nc(-c3ccc(O)cc3O)cs2)cc1O`, the IC50 at Alpha-amylase 1A (read-out: IC50) is 642 µM.

With `O=C(/C=C/c1ccc(O)c(O)c1)O[C@H](Cc1ccc(O)c(O)c1)C(=O)O` [ROSMARINIC ACID], on Alpha amylase, the half-inhibitory concentration (IC50) is 1400 µM. On to `Cc1[nH]nc(-c2ccc(O)cc2O)c1Oc1ccc(C(=O)O)cc1`, for which, at Alpha-amylase 1A (read-out: IC50), the half-maximal inhibitory concentration (IC50) is 4000 µM. In the case of `O=C1C[C@@H](c2ccc(O)cc2)Oc2cc(O)cc(O)c21` [NARINGENIN], at Alpha amylase, the IC50 is 1800 µM. On Alpha amylase, `O=C(O)c1ccc(O)c(O)c1` [PROTOCATECHUIC ACID] had a 50% inhibitory concentration (IC50) of more than 10000 µM.

`C/C(=N\NC(=O)CCC(=O)Nc1ccccc1C)c1ccc(O)cc1O`: at Alpha-amylase 1A (read-out: IC50), the IC50 came to 850 µM. Consider `Cc1cc(C=O)c(O)c(/C=N/N=C(/N/N=C/c2cc(C)cc(C=O)c2O)SCc2ccccc2)c1`, for which the IC50 entry at Alpha-amylase 1A is reported as “ND(Insoluble)”.

For `COc1cc(/C=C/C(=O)O)ccc1O` [FERULATE], the concentration for half-maximal inhibition (IC50) against Alpha amylase is more than 5000 µM. Take `O=C(O)c1ccc(Nc2nc(-c3ccc(O)cc3O)cs2)cc1`: the IC50 at Alpha-amylase 1A (read-out: IC50) amounted to 680 µM.

In the case of `O=C(/C=C/c1ccc(O)c(O)c1)O[C@@H]1C[C@](O)(C(=O)O)C[C@@H](OC(=O)/C=C/c2ccc(O)c(O)c2)[C@H]1O`, the IC50 at Alpha amylase amounted to 390 µM. As for `O=C(O)/C=C/c1ccc(O)c(O)c1` [CAFFEIC ACID], the IC50 on Alpha amylase amounted to 4800 µM. Consider `CCc1cc(-c2n[nH]c(C(=O)O)c2-c2ccc3c(c2)OCO3)c(O)cc1O`, for which the IC50 on Alpha-amylase 1A (read-out: IC50) was 4000 µM. With `O=C(O)[C@]1(O)C[C@@H](O)[C@@H](O)[C@H](O)C1` [QUINIC ACID], at Alpha amylase, the half-inhibitory concentration (IC50) is 13000 µM. On to `COc1cc2ccc(=O)oc2cc1O` [SCOPOLETIN], for which the concentration for half-maximal inhibition (IC50) at Alpha amylase stood at 1300 µM. On to `Oc1cc(O)c2c(c1)O[C@H](c1ccc(O)c(O)c1)[C@H](O)C2` [(-)-EPICATECHIN], for which, on Alpha amylase, the IC50 worked out at 3500 µM. `O=C(O)c1cccc(O)c1O` [2,3-DIHYDROXYBENZOIC ACID] registered an IC50 on Alpha amylase of more than 7000 µM.

In turn, `O=c1cc(-c2ccc(O)c(O)c2)oc2cc(O[C@@H]3O[C@H](CO)[C@@H](O)[C@H](O)[C@H]3O)cc(O)c12` [GALUTEOLIN] gave an IC50 against Alpha amylase of 280 µM. As to `CC(O)CNCCNCc1ccc(-c2ccccc2F)o1` (stereo not given), on Alpha-amylase 1A (read-out: IC50), the IC50 came out at 1000 µM. At Alpha amylase, `O=c1ccc2cc(O[C@@H]3O[C@H](CO)[C@@H](O)[C@H](O)[C@H]3O)c(O)cc2o1` [ESCULIN] showed an IC50 of 1670 µM. `Oc1ccc(Nc2nc(-c3ccccc3)cs2)cc1`: the 50% inhibitory concentration (IC50) at Alpha-amylase 1A (read-out: IC50) was determined as 1270 µM. `COc1cccc(C2NC(c3cccc(OC)c3O)C([N+](=O)[O-])C(C)(C)C2[N+](=O)[O-])c1O` (stereo not given): the IC50 at Alpha-amylase 1A (read-out: IC50) was 300 µM.

For the origin of these results see ChEMBL document CHEMBL3616379, “From carbohydrates to drug-like fragments: Rational development of novel α-amylase inhibitors” (Bioorg Med Chem, 2015).
